According to patent publication US11352400B2, “PI3K gamma inhibitor peptide for treatment of respiratory system diseases” (Kither Biotech S.r.I., priority 2014, dated 2022):

Assays:
[1] = target: T1, association of PI3Kγ with PKA RII (Homo sapiens, UniProt P13861); conditions: in vitro, previous study (1); cited from earlier work
T1 construct: the regulatory subunit of PKA (PKA RII) was immunoprecipitated by incubating the protein extract; expressed in transfected cells; host or cells: HEK293 (ATCC CRL-1573) transfected with pcDNA3.1-PI3Kγ; PKA RII endogenous

[2] = test system: PI3Kγ-bound phosphodiesterase 3B; conditions: in vitro, previous study (1); cited from earlier work
β2-AR/cAMP signaling = assay: FRET imaging of cAMP (ICUE3 probe) in hBSMCs after β2-AR stimulation; format: cell-based, human; conditions: hBSMCs pre-treated 50 μM, 30 minutes; ISO 100 nM + CGP-20712A 100 nM
Experimental: Human bronchial smooth muscle cells (hBSMCs) were transfected with a plasmid encoding the FRET probe for cAMP, ICUE3 (described in the U.S. Pat. No. 8,236,523 B2) (2), by electroporation with a Nucleofector device (AMAXA, Gaithersburg, Md.), according to the manufacturer's protocol. Briefly, 1×10^6 cells were re-suspended in 100 μL of nucleofection solution (VPI-1004, AMAXA, Gaithersburg, Md.), mixed with 1 μg of pcDNA3-ICUE3 (described in U.S. Pat. No. 8,236,523 B2), and subjected to electroporation in a nucleofection apparatus of Amaxa Biosystems (Program A-033). Live cell imaging experiments were performed at 24 hours after transfection.
Measurements of cAMP levels were performed on human bronchial smooth muscle cells (hBSMCs) that express the FRET probe ICUE3, as described previously (2). Briefly, cells were maintained in a K^+-Ringer solution containing (in mmol/L) 121.6 NaCl, 5.4 KCl, 1.8 MgCl2, 1.8 CaCl2, 4 NaHCO3, 0.8 NaH2PO4, 5 D-glucose, 5 sodium pyruvate, 10 HEPES, at pH 7.4. […] FRET efficiency was calculated using the “Method 3” provided by the Leica wizard application for FRET imaging and sensitized emission, according to which: EA(i)=B/A, where EA(i) is the apparent FRET efficiency; A and B are the intensities of the CFP channel and FRET, respectively. […]

hBSMCs = assay: Measurements of calcium transients (Indo-1) in hBSMCs; format: cell-based, human; conditions: 50 μM, 30 minutes, 40 mM KCl depolarizing solution
Experimental: Cells were washed with a Tyrode solution containing (in mmol/L): 5 HEPES, 154 NaCl, 4 KCl, 2 CaCl2, 1 MgCl2, 5.5 D-glucose, at pH 7.35 and placed on an inverted microscope. Cells were kept in Tyrode solution and treated with a KCl depolarizing solution containing (in mmol/L): 5 HEPES, 118 NaCl, 40 KCl, 2 CaCl2, 1 MgCl2, 5.5 D-glucose, at pH 7.35. Calcium transients were analyzed as the ratio of fluorescence signals measured at 400 nm and 490 nm following excitation of Indo-1-AM-loaded cells at 350 nm. Experiments were recorded and analyzed with Igor® Software, using the functions added by Jason Rothman (Neuromatic, www.thinkrandom.com).

wild-type CFTR = assay: Chloride currents in Ussing chamber, NuLi-1 cells; format: cell-based, human; conditions: peptide 10-30 μM, P1 30 μM
Experimental: (§1) Human airway epithelial cell lines expressing a wild-type CFTR (NuLi-1) or with the ΔF508 mutation (CuFi-1) were purchased from ATCC (NuLi-1 product code: ATCC® CRL-4011™; CuFi-1 product code: ATCC® CRL-4013™). Cells were cultured in Dulbecco's Modified Eagle Medium (DMEM, Gibco, Carlsbad, Calif.) supplemented with 10% fetal bovine serum (FBS), 30 μg/mL of penicillin, 100 μg/mL of streptomycin and 300 μg/mL hygromycin B (Gibco, Carlsbad, Calif.).
(§2) To measure chloride currents in normal and ΔF508 primary human bronchial epithelial cells, cells were cultured on 1.12 cm^2 Snapwell inserts. Filters were mounted in Ussing chambers, and a chloride gradient was applied by incubating the cells in a basolateral high-chloride buffer containing (in mmol/L): 140 NaCl, 5 KCl, 0.36 K2HPO4, 0.44 KH2PO4, 1.3 CaCl2, 0.5 MgCl2, 4.2 NaHCO3, 10 HEPES, and 10 glucose, at pH 7.4 and an apical low-chloride buffer containing (in mmol/L): 133.3 Na-gluconate, 5 K-gluconate, 2.5 NaCl, 0.36 K2HPO4, 0.44 KH2PO4, 5.7 CaCl2, 0.5 MgCl2, 4.2 NaHCO3, 10 HEPES, and 10 mannitol, at pH 7.4. Buffers were aerated with a mixture of 95% O2 and 5% CO2 and the temperature was maintained at 37° C. during the experiment. […] After a stabilization period of 30 minutes, drugs were added at specific times, while the current was continuously recorded.

ΔF508-CFTR = assay: Chloride currents in Ussing chamber, CuFi-1 cells; format: cell-based, human; conditions: CuFi-1 cells corrected with VX-809 (20 μM, 24 hours); P1 10 μM, VX-770 10 μM
Experimental: as §1, §2

T1 sequence (P13861 whole entry): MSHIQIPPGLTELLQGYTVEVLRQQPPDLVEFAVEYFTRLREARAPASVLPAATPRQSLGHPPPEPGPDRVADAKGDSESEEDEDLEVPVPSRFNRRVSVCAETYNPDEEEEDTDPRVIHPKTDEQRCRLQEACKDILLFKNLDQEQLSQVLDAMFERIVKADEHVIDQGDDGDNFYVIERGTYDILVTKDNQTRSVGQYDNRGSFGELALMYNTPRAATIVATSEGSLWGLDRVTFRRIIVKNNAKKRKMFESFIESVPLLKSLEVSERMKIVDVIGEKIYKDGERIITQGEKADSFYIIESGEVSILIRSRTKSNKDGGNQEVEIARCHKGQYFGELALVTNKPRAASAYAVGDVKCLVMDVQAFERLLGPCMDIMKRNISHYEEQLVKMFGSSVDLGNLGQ

Sequence | PKA anchoring (PI3Kγ-PKA interaction) [1] | activity of PI3Kγ-bound phosphodiesterase 3B [2] | increase of cAMP accumulation following stimulation of β2-ARs (β2-AR/cAMP signaling) | influx of Ca2+ induced by KCl (through VOCCs) (hBSMCs) | CFTR-dependent Cl− currents (wild-type CFTR) | CFTR activity in the presence of VX-770 (ΔF508-CFTR)
KATHRSPGQIHLVQRHPPSEESQAF (homo sapiens) [SEQ ID No.: 1] | inhibits | decreases |  |  |  | 
RQIKIWFQNRRMKWKK (Antennapedia penetratin 1) [P1 control peptide, cell-penetrating Penetratin 1 of Antennapedia, used as control peptide, reference compound] |  |  | unchanged | unchanged | did not change | did not change
